# Assay results: patent US20230105577A1, “A TOPICAL COMPOSITION” (Conopco, Inc., d/b/a UNILEVER, priority 2020, published 2023)
# Counter-ions that a name gives are not always drawn.
# What was measured:
# M. furfur (CBS 1878) = assay: Zone of inhibition (ZOI) assay; assay type: cell-based, Malassezia furfur; conditions: 0.1% OCT, 10 μL on 6 mm filter paper, 32° C., 2 days
# Description: Method 2: Zone Off Inhibition (ZOI) Assay
# Atractylodes macrocephala (AM) root water extract (purchased from Huzhou Liaoyuan, China) was prepared at concentration of 0.75%, and 1.5% in 50% water/DMSO. Octopirox (OCT) was prepared at concentration of 0.1% and 0.2% in DMSO. Prepare Malassezia growth agar plates, and then spread 200 μL M. furfur (10^6 CFU) (CBS 1878) on to the agar. Several sterile filter papers (diameter=6 mm) were placed on the agar plate. 10 μL of compound solutions were added on the filter paper. The plates were Incubate at 32° C. for 2 days. Clear growth inhibition zone was recorded.
# Synergistic antimicrobial activity:Inhibition distance for compound1+compound2combination>Inhibition distance for compound1 alone+Inhibition distance for compound2 alone
# M. furfur (CBS1878) = conditions: for The range of concentration of the atractylenolide compound (ppm) where the ΣFIC was less than 0.9 / The range of ratio of atractylenolide compound/octopirox (w/w) where ΣFIC was less than 0.9: in combination with octopirox, 32° C.
# Description: Method 1: ΣFIC Assay Against M. furfur.
# M. furfur (CBS1878) was maintained on MD agar plate (Solution A) was cultured into 20 ml of growth medium Pityrosporum Broth (PB, Solution B). They are then incubated at 32° C. for 48 hours with shaking. Then, 1 ml of the first broth culture is transferred into 9 ml of fresh PB and incubated at 32° C. for 48 hours with shaking. The final culture should contain 2 to 6×10^6 cells/ml. This is achieved by diluting using PB to 5×10^5 cells/ml.
# Octopirox® was serially diluted (2-fold) to prepare in a range of 60-1000 ppm in the growth medium. Testing atractylenolide compound (stock: 4 mg/ml) was 2-fold serially diluted in DMSO to prepare in a range of 40000-10 ppm. Binary combinations of octopirox and the testing compound were prepared in 96-well plate by mixing 10 μl of octopirox solution with 10 μl of testing compound. The solution in each well were further mixed with 180 μl of M. furfur strain suspensions in PB.
# The final cell density in the testing plate is around 5*10^4 cell/ml. The final concentration of each ingredient in ppm (parts per million) after (20-fold dilution) was as follows. Each of these concentrations was tried out to determine the FIC value for (either of) Octopirox® in combination with one of the atractylenolide compound.
# Multi-channel pipette was used to mix the compound and strain suspension. Thereafter the 96-well plates were incubated in an incubator. In accordance with the test protocols that were followed, M. furfur was incubated aerobically at 32° C. for 1 day. Thereafter 20 μl alamar blue (0.1%) was dispensed in each well and the procedure of incubation (as abovementioned) was repeated. Finally, the change in colour of the indicator was monitored to check for visible signs of microbial growth or inhibition of the growth. If the colour changed to red it indicated growth (of microbes) and blue indicated no growth or inhibition of growth.
# The MIC is defined as the absolute lowest concentration of active that provides complete microbial growth inhibition as indicated by the blue color of alamar blue under the tested condition.
# The procedure is as follows:
# The parameter can be defined as follows:
# After all the observations were recorded and tabulated, the Fractional Inhibition Concentration (FIC) was calculated.
# This parameter is defined as follows:
# ΣFIC=FIC(component1)+FIC(component2)
# In this study, we have adopted a liberal approach defining any binary mixture with ΣFIC<0.9 as showing evidence of synergistic behavior.
# The experiments were carried out over a concentration range of ingredients as below:
Molecule,Inhibition distance (mm) = (Inhibition zone diameter − filter paper diameter)/2 (M. furfur (CBS 1878); 0.75% AM),Inhibition distance (mm) = (Inhibition zone diameter − filter paper diameter)/2 (M. furfur (CBS 1878); 1.5% AM),The range of concentration of the atractylenolide compound (ppm) where the ΣFIC was less than 0.9 (M. furfur (CBS1878)),The range of ratio of atractylenolide compound/octopirox (w/w) where ΣFIC was less than 0.9 (M. furfur (CBS1878)),Synergistic antimicrobial activity in combination with Octopirox® (ΣFIC assay) (M. furfur (CBS1878); binary combination with Octopirox® 0-50 ppm)
"Cc1cc(CC(C)CC(C)(C)C)n(O)c(=O)c1 (stereo not shown) [OCT, 1-hydroxy-4-methyl-6-(2,4,4-trimethylpentyl)-2(1H) pyridinone monoethanolamine salt]",2.7 mm,2.7 mm,,,
"C=C1CCC[C@]2(C)C[C@@H]3OC(=O)C(C)=C3C[C@@H]12 [Atractylenolide II, atractylenolide II]",,,31.25-1000 ppm,5-2560 w/w,
"C=C1CCC[C@]2(C)C=C3OC(=O)C(C)=C3C[C@@H]12 [Atractylenolide I, atractylenolide I]",,,31.25-500 ppm,5-1280 w/w,
"zinc pyrithione [ZPTO, reference compound]",,,,,cannot interact synergistically
